Results on five molecules are retold here after ChEMBL document CHEMBL5233286, “Lasiodiplodiapyrones A and B, Pyrone-Preussomerin Adducts with Highly Strained Polycyclic Ring Systems from Lasiodiplodia pseudotheobromae” (J Nat Prod, 2023).

Each structure is given as a SMILES string. Where a SMILES comes first, the peptide text is derived from it. The star is where a group is joined. Cbz = O=C(OCc1ccccc1)*

This assay has as its system RAW264.7. Briefly: Anti-inflammatory activity against mouse RAW264.7 cells assessed as inhibition of LPS-induced NO production pretreated with compound for 2 hrs followed by LPS stimulation for 12 hrs by Griess reagent based analysis. It is filed as functional, cell-based. In general terms: Nitrite, measured by Griess reagent, commonly stands in for NO production.
As for `Cc1cc2c(c(=O)o1)[C@@H]1[C@H](O2)[C@H](O)c2c(O)ccc3c2[C@@]12Oc1cccc4c1[C@](CC[C@@H]4O)(O3)O2`, the 50% inhibitory concentration (IC50) – broadly, the midpoint of a concentration-inhibition curve – was found to be 4.8 µM.

On to `O=C1C[C@@H](O)[C@]23Oc4cccc5c4[C@](CC[C@@H]5O)(Oc4ccc(O)c1c42)O3`, for which the half-maximal inhibitory concentration (IC50) amounted to 12.8 µM.

Regarding `Oc1ccc2c3c1[C@@H](O)[C@H]1O[C@H]1[C@]31Oc3cccc4c3[C@](CC[C@@H]4O)(O2)O1`, the IC50 was 5.9 µM.

For the molecule `Cc1cc2c(c(=O)o1)[C@@H]1[C@H](O2)[C@H](O)c2c(O)ccc3c2[C@@]12Oc1cccc4c1[C@](C=C[C@@H]4O)(O3)O2`, the IC50 was 8.5 µM.

For `CC(C)C[C@@H](C=O)NC(=O)[C@H](CC(C)C)NC(=O)[C@H](CC(C)C)NC(=O)OCc1ccccc1` [MG-132] (Cbz-Leu-Leu-Leu-aldehyde), the concentration for half-maximal inhibition (IC50) turned out to be 2.6 µM.
